Values of other authors, collected in PMC9606943, “Synthesis and Chemopreventive Potential of 5-FU/Genistein Hybrids on Colorectal Cancer Cells” (Pharmaceuticals, 2022).

Key:
[1] = tested on: SW480 cells; parameters: method as in earlier work; conditions: 48 h post-treatment with 300 µM; cited from earlier work
[2] = tested on: MCF-7; parameters: method as in PMID 21389782; conditions: ER-positive breast cancer cell line; cited from earlier work
[3] = tested on: 21PT; parameters: method as in PMID 21389782; conditions: ER-positive breast cancer cell line; cited from earlier work
[4] = tested on: T47D; parameters: method as in PMID 21389782; conditions: ER-positive breast cancer cell line; cited from earlier work

Row | SMILES | reduction in cell viability [1] [%] | IC50 [2] [µM] | IC50 [3] [µM] | IC50 [4] [µM]
1 | CC(=O)Oc1ccccc1C(=O)OCCn1cc(COc2cc(O)c3c(=O)c(-c4ccc(O)cc4)coc3c2)nn1 [F] | 40.49 |  |  | 
2 | O=c1c(-c2ccc(OCCn3cc(-c4ccccc4)nn3)cc2)coc2cc(OCCn3cc(-c4ccccc4)nn3)cc(O)c12 [E] |  | 0.8 | 0.9 | 0.9
